# Results: ChEMBL document CHEMBL1149774, “Synthesis of N-(5,7-diamino-3-phenyl-quinoxalin-2-yl)-3,4,5-substituted anilines and N-[4[(5,7-diamino-3-phenylquinoxalin-2-yl)amino]benzoyl]-l-glutamic acid diethyl ester: evaluation of in vitro anti-cancer and anti-folate activities” (Eur J Med Chem, 2008)
# Active and inactive are the calls of the source. The rule behind the calls is not given here.
# Experiments:
# [1] = Growth inhibition of human HS 578T cells after 48 hrs by SRB staining method; type: functional; details: for CC50: read-out: pLC50 (the source's name) (converted); for TGI: read-out: pTGI (converted)
# MOLT-4 = assay: Growth inhibition of human MOLT4 cells after 48 hrs by SRB staining method; type: functional; details: MOLT-4, 48 h; for CC50: read-out: pLC50 (the source's name) (converted); for TGI: read-out: pTGI (converted)
# COLO 205 = assay: Growth inhibition of human COLO205 cells after 48 hrs by SRB staining method; type: functional; details: COLO 205, 48 h; for TGI: read-out: pTGI (converted)
# SK-MEL-2 = assay: Growth inhibition of human SK-MEL-2 cells after 48 hrs by SRB staining method; type: functional; details: SK-MEL-2, 48 h; for TGI: read-out: pTGI (converted)
# RPMI-8226 = assay: Growth inhibition of human RPMI8226 cells after 48 hrs by SRB staining method; type: functional; details: RPMI-8226, 48 h; for CC50: read-out: pLC50 (the source's name) (converted); for TGI: read-out: pTGI (converted)
# SNB-19 = assay: Growth inhibition of human SNB19 cells after 48 hrs by SRB staining method; type: functional; details: SNB-19, 48 h; for TGI: read-out: pTGI (converted)
# IGROV-1 = assay: Growth inhibition of human IGROV1 cells after 48 hrs by SRB staining method; type: functional; details: IGROV-1, 48 h; for TGI: read-out: pTGI (converted)
# SK-MEL-28 = assay: Growth inhibition of human SK-MEL-28 cells after 48 hrs by SRB staining method; type: functional; details: SK-MEL-28, 48 h; for CC50: read-out: pLC50 (the source's name) (converted); for TGI: read-out: pTGI (converted)
# SW-620 = assay: Growth inhibition of human SW620 cells after 48 hrs by SRB staining method; type: functional; details: SW-620, 48 h; for CC50: read-out: pLC50 (the source's name) (converted); for TGI: read-out: pTGI (converted)
# K562 = assay: Growth inhibition of human K562 cells after 48 hrs by SRB staining method; type: functional; details: K562, 48 h
# A549 = assay: Growth inhibition of human A549 cells after 48 hrs by SRB staining method; type: functional; details: A549, 48 h; for CC50: read-out: pLC50 (the source's name) (converted); for TGI: read-out: pTGI (converted)
# T47D = assay: Growth inhibition of human T47D cells after 48 hrs by SRB staining method; type: functional; details: for CC50: read-out: pLC50 (the source's name) (converted); for TGI: read-out: pTGI (converted)
# Thymidylate synthase [2] = target: Thymidylate synthase (Homo sapiens, UniProt P04818)
# Thymidylate synthase (Homo sapiens, UniProt P04818), sequence (P04818 whole entry): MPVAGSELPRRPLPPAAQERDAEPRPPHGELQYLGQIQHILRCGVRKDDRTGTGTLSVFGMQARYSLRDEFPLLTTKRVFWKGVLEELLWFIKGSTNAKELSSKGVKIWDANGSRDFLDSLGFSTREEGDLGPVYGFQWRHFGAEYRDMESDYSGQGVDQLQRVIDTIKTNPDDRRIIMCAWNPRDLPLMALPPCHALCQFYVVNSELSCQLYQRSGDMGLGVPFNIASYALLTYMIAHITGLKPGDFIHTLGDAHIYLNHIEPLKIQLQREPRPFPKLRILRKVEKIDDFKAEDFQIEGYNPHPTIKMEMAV
# Description: Inhibition of human thymidylate synthase
# CAKI-1 = assay: Growth inhibition of human CAKI1 cells after 48 hrs by SRB staining method; type: functional; details: CAKI-1, 48 h; for CC50: read-out: pLC50 (the source's name) (converted); for TGI: read-out: pTGI (converted)
# Thymidylate synthase [3] = target: T1, Thymidylate synthase (Lactobacillus casei, UniProt P00469)
# T1 sequence (P00469 whole entry): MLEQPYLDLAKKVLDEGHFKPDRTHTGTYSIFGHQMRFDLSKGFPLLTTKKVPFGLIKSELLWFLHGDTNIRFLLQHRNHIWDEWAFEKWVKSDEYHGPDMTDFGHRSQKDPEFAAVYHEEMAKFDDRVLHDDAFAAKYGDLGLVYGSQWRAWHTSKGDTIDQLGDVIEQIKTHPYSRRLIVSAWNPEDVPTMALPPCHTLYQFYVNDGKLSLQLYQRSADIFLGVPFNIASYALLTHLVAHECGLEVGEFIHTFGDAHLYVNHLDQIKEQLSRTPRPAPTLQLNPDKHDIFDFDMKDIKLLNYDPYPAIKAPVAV
# Description: Inhibition of Lactobacillus casei thymidylate synthase
# Malme-3M = assay: Growth inhibition of human MALME-3M cells after 48 hrs by SRB staining method; type: functional; details: for TGI: read-out: pTGI (converted)
# UO-31 = assay: Growth inhibition of human UO31 cells after 48 hrs by SRB staining method; type: functional; details: UO-31, 48 h; for CC50: read-out: pLC50 (the source's name) (converted); for TGI: read-out: pTGI (converted)
# PC-3 = assay: Growth inhibition of human PC3 cells after 48 hrs by SRB staining method; type: functional; details: PC-3, 48 h; for CC50: read-out: pLC50 (the source's name) (converted); for TGI: read-out: pTGI (converted)
# MDA-MB-231 = assay: Growth inhibition of human MDA-MB-231 cells after 48 hrs by SRB staining method; type: functional; details: MDA-MB-231, 48 h; for CC50: read-out: pLC50 (the source's name) (converted); for TGI: read-out: pTGI (converted)
# A498 = assay: Growth inhibition of human A498 cells after 48 hrs by SRB staining method; type: functional; details: A498, 48 h
# CCRF-CEM = assay: Growth inhibition of human CCRF-CEM cells after 48 hrs by SRB staining method; type: functional; details: for CC50: read-out: pLC50 (the source's name) (converted)
# [4] = target: T2, Dihydrofolate reductase (Homo sapiens) (UniProt P00374); assay: Inhibition of human dihydrofolate reductase at 10 uM
# T2 sequence (whole entry): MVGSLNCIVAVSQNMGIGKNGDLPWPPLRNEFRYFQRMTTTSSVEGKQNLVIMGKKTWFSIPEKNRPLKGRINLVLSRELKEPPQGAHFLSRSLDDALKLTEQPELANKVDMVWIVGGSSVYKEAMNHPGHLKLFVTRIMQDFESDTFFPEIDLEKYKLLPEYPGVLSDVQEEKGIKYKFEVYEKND
# BT-549 = assay: Growth inhibition of human BT549 cells after 48 hrs by SRB staining method; type: functional; details: BT-549, 48 h
# ACHN = assay: Growth inhibition of human ACHN cells after 48 hrs by SRB staining method; type: functional
# HOP-92 = assay: Growth inhibition of human HOP92 cells after 48 hrs by SRB staining method; type: functional; details: HOP-92, 48 h
# [5] = read-out: pLC50 (the source's name) (converted)
compound,measurement,setting,value
Nc1cc(N)c2nc(-c3ccccc3)c(Nc3ccc(Cl)c(Cl)c3)nc2c1,GI50,[1],19.1 µM
same,CC50,[1],> 100 µM
same,TGI,[1],51.3 µM
same,GI50,MOLT-4,4.07 µM
same,CC50,MOLT-4,> 100 µM
same,TGI,MOLT-4,> 100 µM
same,GI50,COLO 205,11.7 µM
same,LC50,COLO 205,85.1 µM
same,TGI,COLO 205,31.6 µM
same,GI50,SK-MEL-2,2.34 µM
same,LC50,SK-MEL-2,69.2 µM
same,TGI,SK-MEL-2,19.1 µM
same,GI50,RPMI-8226,2 µM
same,CC50,RPMI-8226,> 100 µM
same,TGI,RPMI-8226,4.9 µM
same,GI50,SNB-19,12.9 µM
same,LC50,SNB-19,70.8 µM
same,TGI,SNB-19,30.2 µM
same,GI50,IGROV-1,4.9 µM
same,LC50,IGROV-1,66.1 µM
same,TGI,IGROV-1,20.9 µM
same,GI50,SK-MEL-28,16.2 µM
same,CC50,SK-MEL-28,> 100 µM
same,TGI,SK-MEL-28,44.7 µM
same,GI50,SW-620,13.2 µM
same,CC50,SW-620,> 100 µM
same,TGI,SW-620,51.3 µM
same,GI50,K562,3.55 µM
same,CC50,K562; [5],> 100 µM
same,TGI,K562; read-out: pTGI (converted),> 100 µM
same,GI50,A549,10.7 µM
same,CC50,A549,> 100 µM
same,TGI,A549,34.7 µM
same,GI50,T47D,11.5 µM
same,CC50,T47D,83.2 µM
same,TGI,T47D,30.9 µM
same,Ki,Thymidylate synthase [2],0.9 µM
same,GI50,CAKI-1,13.5 µM
same,CC50,CAKI-1,64.6 µM
same,TGI,CAKI-1,29.5 µM
same,Ki,Thymidylate synthase [3],1 µM
same,GI50,Malme-3M,10.2 µM
same,LC50,Malme-3M,57.5 µM
same,TGI,Malme-3M,24.5 µM
same,GI50,UO-31,11.2 µM
same,CC50,UO-31,> 100 µM
same,TGI,UO-31,36.3 µM
same,GI50,PC-3,3.09 µM
same,CC50,PC-3,89.1 µM
same,TGI,PC-3,15.1 µM
same,GI50,MDA-MB-231,5.75 µM
same,CC50,MDA-MB-231,> 100 µM
same,TGI,MDA-MB-231,27.5 µM
same,GI50,A498,12 µM
same,CC50,A498; [5],57.5 µM
same,TGI,A498; read-out: pTGI (converted),26.3 µM
same,GI50,CCRF-CEM,1.29 µM
same,CC50,CCRF-CEM,> 100 µM
same,Activity,[4],inactive
CCOC(=O)CCC(NC(=O)c1ccc(Nc2nc3cc(N)cc(N)c3nc2-c2ccccc2)cc1)C(=O)OCC (configuration not stated),GI50,[1],33.9 µM
same,CC50,[1],> 100 µM
same,TGI,[1],75.9 µM
same,GI50,MOLT-4,2.4 µM
same,CC50,MOLT-4,> 100 µM
same,TGI,MOLT-4,7.41 µM
same,GI50,BT-549,41.7 µM
same,CC50,BT-549; [5],> 100 µM
same,TGI,BT-549; read-out: pTGI (converted),> 100 µM
same,GI50,COLO 205,8.91 µM
same,LC50,COLO 205,> 100 µM
same,TGI,COLO 205,> 100 µM
same,GI50,SK-MEL-2,7.76 µM
same,LC50,SK-MEL-2,> 100 µM
same,TGI,SK-MEL-2,74.1 µM
same,GI50,RPMI-8226,3.16 µM
same,CC50,RPMI-8226,> 100 µM
same,TGI,RPMI-8226,> 100 µM
same,GI50,SNB-19,21.4 µM
same,LC50,SNB-19,> 100 µM
same,TGI,SNB-19,> 100 µM
same,GI50,IGROV-1,6.31 µM
same,LC50,IGROV-1,> 100 µM
same,TGI,IGROV-1,89.1 µM
same,GI50,SK-MEL-28,1.51 µM
same,CC50,SK-MEL-28,5.89 µM
same,TGI,SK-MEL-28,3.02 µM
same,GI50,SW-620,40.7 µM
same,CC50,SW-620,> 100 µM
same,TGI,SW-620,> 100 µM
same,GI50,A549,20 µM
same,CC50,A549,> 100 µM
same,TGI,A549,> 100 µM
same,GI50,ACHN,12.9 µM
same,CC50,ACHN; [5],> 100 µM
same,TGI,ACHN; read-out: pTGI (converted),46.8 µM
same,GI50,T47D,1.66 µM
same,CC50,T47D,> 100 µM
same,TGI,T47D,4.9 µM
same,Ki,Thymidylate synthase [2],34 µM
same,GI50,CAKI-1,27.5 µM
same,CC50,CAKI-1,> 100 µM
same,TGI,CAKI-1,> 100 µM
same,Ki,Thymidylate synthase [3],27 µM
same,GI50,Malme-3M,2.82 µM
same,LC50,Malme-3M,> 100 µM
same,TGI,Malme-3M,6.17 µM
same,GI50,UO-31,21.9 µM
same,CC50,UO-31,> 100 µM
same,TGI,UO-31,75.9 µM
same,GI50,PC-3,21.4 µM
same,CC50,PC-3,> 100 µM
same,TGI,PC-3,91.2 µM
same,GI50,HOP-92,10.7 µM
same,LC50,HOP-92,81.3 µM
same,TGI,HOP-92; read-out: pTGI (converted),29.5 µM
same,GI50,MDA-MB-231,8.91 µM
same,CC50,MDA-MB-231,81.3 µM
same,TGI,MDA-MB-231,28.2 µM
same,GI50,CCRF-CEM,2.95 µM
same,CC50,CCRF-CEM,> 100 µM
same,TGI,CCRF-CEM; read-out: pTGI (converted),> 100 µM
same,Activity,[4],inactive
